Results as given in ChEMBL document CHEMBL1156550, “Synthesis and pharmacological evaluation of pentacyclic 6a,7-dihydrodiindole and 2,3-dihydrodiindole derivatives as novel melatoninergic ligands” (Bioorg Med Chem, 2008).

Legend:
[1] = target: T1, Melatonin receptor type 1B (Homo sapiens, UniProt P49286); experiment: Displacement of 2-[125I]iodomelatonin from human melatonin MT2 receptor expressed in CHO cells; assay type: cell-based
T1 sequence (P49286 whole entry): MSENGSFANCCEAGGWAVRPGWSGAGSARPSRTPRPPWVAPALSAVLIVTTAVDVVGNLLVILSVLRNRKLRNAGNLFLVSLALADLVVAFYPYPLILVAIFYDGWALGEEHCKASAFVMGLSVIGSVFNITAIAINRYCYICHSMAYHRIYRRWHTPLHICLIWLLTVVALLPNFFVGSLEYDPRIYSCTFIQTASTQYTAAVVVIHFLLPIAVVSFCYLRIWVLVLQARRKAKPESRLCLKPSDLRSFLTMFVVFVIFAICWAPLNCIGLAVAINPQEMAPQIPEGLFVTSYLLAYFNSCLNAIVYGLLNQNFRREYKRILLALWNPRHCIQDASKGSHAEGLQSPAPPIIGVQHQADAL

Homo sapiens = species: Homo sapiens; experiment: Selectivity ratio of Ki for human melatonin MT1 receptor to Ki for human melatonin MT2 receptor
[2] = target: Melatonin receptor type 1A (Homo sapiens, UniProt P48039); experiment: Displacement of 2-[125I]iodomelatonin from human melatonin MT1 receptor expressed in CHO cells; assay type: cell-based
Chain of Melatonin receptor type 1A (P48039 whole entry): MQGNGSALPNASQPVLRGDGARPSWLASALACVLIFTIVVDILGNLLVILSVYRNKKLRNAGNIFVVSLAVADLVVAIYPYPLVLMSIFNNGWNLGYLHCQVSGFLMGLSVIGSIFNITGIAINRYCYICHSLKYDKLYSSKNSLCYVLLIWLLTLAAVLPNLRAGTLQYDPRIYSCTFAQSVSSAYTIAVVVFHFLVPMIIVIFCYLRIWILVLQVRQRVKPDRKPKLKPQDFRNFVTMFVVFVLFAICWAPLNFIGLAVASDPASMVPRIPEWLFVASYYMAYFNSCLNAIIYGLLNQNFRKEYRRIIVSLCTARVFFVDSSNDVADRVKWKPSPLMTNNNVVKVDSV

| Structure (SMILES) | Ki [1] | Ratio Ki (Homo sapiens) | Ki [2] |
| --- | --- | --- | --- |
| COc1ccc2c(c1)CC1Cn3c(c(CCNC(C)=O)c4cc(OC)ccc43)CN21 (stereo unspecified) | 410 nM | – | 1800 nM |
| COc1ccc2c(c1)CC(CO)N2Cc1[nH]c2ccc(OC)cc2c1CCNC(C)=O (racemic) | 33.6 nM | 1.03 | 34.5 nM |

The remaining lines, values ahead:

| Ki [1] | Ratio Ki (Homo sapiens) | Ki [2] | Structure (SMILES) |
| --- | --- | --- | --- |
| 36.2 nM | 0.48 | 17.5 nM | COc1ccc2[nH]c(CN3c4ccccc4CC3CO)c(CCNC(C)=O)c2c1 (racemic) |
| 7.8 nM | 1.25 | 9.8 nM | COc1ccc2[nH]c(CN3c4ccccc4C[C@H]3CO)c(CCNC(C)=O)c2c1 |
| 1700 nM | – | 1000 nM | CC(=O)NCCc1c2n(c3ccccc13)CC1Cc3ccccc3N1C2 (stereo unspecified) |
| 65.2 nM | 4.89 | 319 nM | COc1ccc2c(c1)c(CCNC(C)=O)c1n2CC2Cc3ccccc3N2C1 (stereo unspecified) |
